Experiment [1] addresses Human immunodeficiency virus type 1 protease (Human immunodeficiency virus 1, UniProt Q72874). Kind of experiment: Binding affinity for HIV-1 protease.
In a further experiment the test system is MT4. The experiment in a line: Inhibition of HIV-1 induced cytopathic effect in HTLV1 transformed MT-4 cells. The format is functional. Conditions: Homo sapiens, read-out: ED50 (the source's name).
Experiment [2] has as its target Human immunodeficiency virus type 1 protease (Human immunodeficiency virus 1) (UniProt Q72874). The experiment in a line: Percentage inhibition against HIV-1 protease was determined at a concentration of 12.5 uM.
The target is the same in experiment [3]. The experiment in a line: Binding affinity against HIV-1 protease was determined at a concentration 12.5 uM; not active.
The target is the same in experiment [4]. Kind of experiment: Binding affinity against HIV-1 protease was determined at a concentration of 12.5 uM; Not active.

Structures are written as SMILES. Activity calls are given as the source filed them. The rule behind the calls is not given here.

With `CC(C)(C)C(NC(=O)OCc1ccccc1)C(=O)N[C@@H](Cc1ccccc1)[C@H](CO)[C@@H](O)[C@H](Cc1ccccc1)NC(=O)[C@@H](NC(=O)OCc1ccccc1)C(C)(C)C` (single isomer, unassigned; diastereomer B), the Ki (usually a dissociation constant, usually derived from enzyme kinetics or from competition with a known ligand) in experiment [1] was found to be 255 nM. The EC50 with MT4 is greater than 10000 nM.
On to `CC(C)(C)[C@H](N)C(=O)N[C@@H](Cc1ccccc1)[C@H](O)[C@@H](CO)[C@H](Cc1ccccc1)NC(=O)[C@@H](N)C(C)(C)C`, for which the inhibition – broadly, the change of the read-out against control, counted positive when it falls – in experiment [2] was determined as 8%. For the same molecule, the EC50 with MT4 is greater than 10000 nM.
In turn, `CC(C)[C@H](NC(=O)OCc1ccccc1)C(=O)N[C@@H](Cc1ccccc1)[C@H](O)[C@@H](CO)[C@H](Cc1ccccc1)NC(=O)OC(C)(C)C` gave a Ki in experiment [1] of 3700 nM. For the same molecule, the EC50 in the experiment with MT4 is greater than 10000 nM.
Regarding `CC(C)[C@H](NC(=O)OCc1ccccc1)C(=O)N[C@@H](Cc1ccccc1)[C@H](O)[C@@H](C(=O)O)[C@H](Cc1ccccc1)NC(=O)OC(C)(C)C`, the inhibition entry in experiment [3] is “inactive”.
For the molecule `CC(C)C(NC(=O)OCc1ccccc1)C(=O)N[C@@H](Cc1ccccc1)[C@@H](C(=O)O)[C@H](O)[C@H](Cc1ccccc1)NC(=O)[C@@H](NC(=O)OCc1ccccc1)C(C)C` (stereo partly specified), the Ki in experiment [1] was 430 nM.
Consider `CC(C)[C@H](NC(=O)OCc1ccccc1)C(=O)N[C@@H](Cc1ccccc1)[C@@H](O)[C@H](CO)[C@H](Cc1ccccc1)NC(=O)OC(C)(C)C`, for which, in experiment [1], the affinity corresponds to a Ki of 290 nM. Also, in the experiment with MT4, the EC50 is greater than 10000 nM.
As for `CC(C)(C)[C@H](NC(=O)CCc1nc2ccccc2[nH]1)C(=O)N[C@@H](Cc1ccccc1)[C@H](O)[C@@H](CO)[C@H](Cc1ccccc1)NC(=O)[C@@H](NC(=O)CCc1nc2ccccc2[nH]1)C(C)(C)C`, in experiment [1], the Ki was found to be 160 nM. Further, the EC50 with MT4 was greater than 10000 nM.
Take `CC(C)(C)[C@H](NC(=O)CCc1nc2ccccc2[nH]1)C(=O)N[C@@H](Cc1ccccc1)[C@@H](O)[C@H](CO)[C@H](Cc1ccccc1)NC(=O)[C@@H](NC(=O)CCc1nc2ccccc2[nH]1)C(C)(C)C`: in experiment [1], the affinity, expressed as Ki, was 9 nM. In addition, in the experiment with MT4, the EC50 is 520 nM.
In the case of `CC(C)C(NC(=O)OCc1ccccc1)C(=O)N[C@@H](Cc1ccccc1)[C@@H](CO)[C@H](O)[C@H](Cc1ccccc1)NC(=O)[C@@H](NC(=O)OCc1ccccc1)C(C)C` (single isomer, unassigned; diastereomer A), the Ki in experiment [1] is 27 nM. In addition, the EC50 in the experiment on MT4 came out at 3700 nM.
In the case of `CC(C)[C@H](NC(=O)OCc1ccccc1)C(=O)N[C@@H](Cc1ccccc1)[C@H](O)[C@@H](CO)[C@H](Cc1ccccc1)NC(=O)C(NC(=O)OCc1ccccc1)C(C)(C)C` (single isomer, unassigned; diastereomer B), the inhibition in experiment [2] turned out to be 39%. Moreover, the EC50 in the experiment on MT4 was greater than 10000 nM.
Consider `COC(=O)[C@H]([C@@H](O)[C@H](Cc1ccccc1)NC(=O)[C@@H](NC(=O)OCc1ccccc1)C(C)C)[C@H](Cc1ccccc1)NC(=O)OC(C)(C)C`, for which the inhibition entry in experiment [4] is “inactive”.
In turn, `CC(C)[C@H](NC(=O)OCc1ccccc1)C(=O)N[C@@H](Cc1ccccc1)[C@@H](O)[C@H](C(=O)O)[C@H](Cc1ccccc1)NC(=O)OC(C)(C)C` displayed an inhibition in experiment [2] of 18%.
Consider `CC(C)(C)[C@H](NC(=O)c1nc2ccccc2[nH]1)C(=O)N[C@@H](Cc1ccccc1)[C@@H](O)[C@H](CO)[C@H](Cc1ccccc1)NC(=O)[C@@H](NC(=O)c1nc2ccccc2[nH]1)C(C)(C)C`, for which the inhibition in experiment [2] is 31%. Besides, in the experiment with MT4, the EC50 is greater than 10000 nM.
For the molecule `COC(=O)[C@@H]([C@H](O)[C@H](Cc1ccccc1)NC(=O)[C@@H](NC(=O)OCc1ccccc1)C(C)C)[C@H](Cc1ccccc1)NC(=O)OC(C)(C)C`, in experiment [2], the inhibition came to 20%.
`CC(C)C(NC(=O)OCc1ccccc1)C(=O)N[C@@H](Cc1ccccc1)[C@H](CO)[C@@H](O)[C@H](Cc1ccccc1)NC(=O)[C@@H](NC(=O)OCc1ccccc1)C(C)C` (single isomer, unassigned; diastereomer B) gave a Ki in experiment [1] of 510 nM. The EC50 in the experiment with MT4 is greater than 10000 nM.
`CC(C)(C)[C@H](N)C(=O)N[C@@H](Cc1ccccc1)[C@@H](O)[C@H](CO)[C@H](Cc1ccccc1)NC(=O)[C@@H](N)C(C)(C)C` registered an inhibition in experiment [2] of 22%. In addition, the EC50 in the experiment on MT4 is greater than 10000 nM.
With `CC(C)[C@H](NC(=O)OCc1ccccc1)C(=O)N[C@@H](Cc1ccccc1)[C@@H](O)[C@H](CO)[C@H](Cc1ccccc1)NC(=O)[C@H](CC(N)=O)NC(=O)OCc1ccccc1`, the Ki in experiment [1] was 340 nM. Moreover, the EC50 in the experiment on MT4 is greater than 10000 nM.
On the same counts, the results for `CC(C)(C)[C@H](NC(=O)OCc1nc2ccccc2[nH]1)C(=O)N[C@@H](Cc1ccccc1)[C@H](O)[C@@H](CO)[C@H](Cc1ccccc1)NC(=O)[C@@H](NC(=O)OCc1nc2ccccc2[nH]1)C(C)(C)C` are 29 nM and 4700 nM.
In the same order, the values of `CC(C)(C)C(NC(=O)OCc1ccccc1)C(=O)N[C@@H](Cc1ccccc1)[C@@H](CO)[C@H](O)[C@H](Cc1ccccc1)NC(=O)[C@@H](NC(=O)OCc1ccccc1)C(C)(C)C` (single isomer, unassigned; diastereomer A) are 13 nM and 1600 nM.
`CC(C)[C@H](NC(=O)OCc1ccccc1)C(=O)N[C@@H](Cc1ccccc1)[C@@H](O)[C@H](CO)[C@H](Cc1ccccc1)NC(=O)C(NC(=O)OCc1ccccc1)C(C)(C)C` (stereo partly specified): the Ki in experiment [1] is 16 nM. The EC50 in the experiment on MT4 was 2500 nM.
Regarding `CC(C)(C)[C@H](NC(=O)c1nc2ccccc2[nH]1)C(=O)N[C@@H](Cc1ccccc1)[C@H](O)[C@@H](CO)[C@H](Cc1ccccc1)NC(=O)[C@@H](NC(=O)c1nc2ccccc2[nH]1)C(C)(C)C`, in experiment [2], the inhibition was found to be 42%. Further, the EC50 with MT4 was greater than 10000 nM.
On the same counts, the results for `CC(C)[C@H](NC(=O)OCc1ccccc1)C(=O)N[C@@H](Cc1ccccc1)[C@@H](O)[C@@H](CO)[C@H](Cc1ccccc1)NC(=O)[C@@H](CC(N)=O)NC(=O)OCc1ccccc1` are 32% and greater than 10000 nM.
On to `CC(C)(C)[C@H](NC(=O)OCc1nc2ccccc2[nH]1)C(=O)N[C@@H](Cc1ccccc1)[C@@H](O)[C@H](CO)[C@H](Cc1ccccc1)NC(=O)[C@@H](NC(=O)OCc1nc2ccccc2[nH]1)C(C)(C)C`, for which the Ki in experiment [1] amounted to 13 nM. Besides, the EC50 in the experiment with MT4 was determined as 500 nM.

For the origin of these results see ChEMBL document CHEMBL1149976, “Novel, extended transition state mimic in HIV-1 protease inhibitors with peripheral C-2-symmetry” (Bioorg Med Chem Lett, 1994).
